Data set [1] can be described thus: Cytotoxicity against African green monkey Vero cells infected with Human papillomavirus after 72 hrs by MTT assay. It counts as cell-based. Conditions: chlorocebus sabaeus, read-out: TC50.
Data set [2] is described as follows: Cytotoxicity against African green monkey Vero cells infected with Hepatitis B virus after 72 hrs by MTT assay. In kind it is cell-based. As to conditions: chlorocebus sabaeus, read-out: TC50.
Data set [3] has as its system Influenza A virus H3N2. Briefly: Antiviral activity against Influenza A virus H3N2 infected in African green monkey Vero cells assessed as inhibition of virus-induced cytopathogenic effect by microscopic analysis. In kind it is functional, organism-based. In general terms: Damage to the host cells serves as the signal in cytopathic effect assays.
Data set [4] can be described thus: Cytotoxicity against African green monkey Vero cells infected with Herpes simplex virus 2 after 72 hrs by MTT assay. It counts as cell-based. Conditions: chlorocebus sabaeus, read-out: TC50. On the technique in general: Tetrazolium assays rely on reduction of a dye to a coloured formazan, in cell work by metabolically active cells.
The nature of data set [5]: Selectivity index, ratio of TC50 against African green monkey Vero cells infected with Hepatitis B virus after 72 hrs by MTT assay to IC50 against Hepatitis B virus infected in African green monkey Vero cells assessed as inhibition of virus-induced cytopathogenic effect by microscopic analysis. In kind it is toxicity. Conditions: read-out: Selectivity Index.
Data set [6] in a line: Cytotoxicity against African green monkey Vero cells infected with Hepatitis C virus after 72 hrs by MTT assay. It counts as cell-based. Conditions: chlorocebus sabaeus, read-out: TC50.
The subject of data set [7] is Human papillomavirus. Put plainly: Antiviral activity against Human papillomavirus infected in African green monkey Vero cells assessed as inhibition of virus-induced cytopathogenic effect by microscopic analysis. It counts as functional, organism-based.
Data set [8] has as its system Human alphaherpesvirus 1. Briefly: Antiviral activity against Herpes simplex virus 1 infected in African green monkey Vero cells assessed as inhibition of virus-induced cytopathogenic effect by microscopic analysis. It counts as functional, organism-based. As to conditions: Human alphaherpesvirus 1, Vero.
For data set [9], the system named is Human alphaherpesvirus 2. Put plainly: Antiviral activity against Herpes simplex virus 2 infected in African green monkey Vero cells assessed as inhibition of virus-induced cytopathogenic effect by microscopic analysis. It counts as functional, organism-based. As to conditions: Human alphaherpesvirus 2, Vero.
A short description of data set [10]: Cytotoxicity against African green monkey Vero cells infected with Coxsackievirus B3 after 72 hrs by MTT assay. In kind it is cell-based. As to conditions: chlorocebus sabaeus, read-out: TC50.
For data set [11], the system named is Coxsackievirus B3. Briefly: Antiviral activity against Coxsackievirus B3 infected in African green monkey Vero cells assessed as inhibition of virus-induced cytopathogenic effect by microscopic analysis. In kind it is functional, organism-based. As to conditions: Enterovirus B.
Data set [12] is described as follows: Selectivity index, ratio of TC50 against African green monkey Vero cells infected with Herpes simplex virus 1 after 72 hrs by MTT assay to IC50 against Herpes simplex virus 1 infected in African green monkey Vero cells assessed as inhibition of virus-induced cytopathogenic effect by microscopic analysis. It counts as toxicity. As to conditions: read-out: Selectivity Index.

Data set [13] is described as follows: Selectivity index, ratio of TC50 against African green monkey Vero cells infected with Herpes simplex virus 2 after 72 hrs by MTT assay to IC50 against Herpes simplex virus 2 infected in African green monkey Vero cells assessed as inhibition of virus-induced cytopathogenic effect by microscopic analysis. It counts as toxicity. Conditions: read-out: Selectivity Index.

The nature of data set [14]: Cytotoxicity against African green monkey Vero cells infected with Influenza A virus H3N2 after 72 hrs by MTT assay. Conditions: chlorocebus sabaeus, read-out: TC50. In kind it is cell-based.
Data set [15] in a line: Selectivity index, ratio of TC50 against African green monkey Vero cells infected with Influenza A virus H3N2 after 72 hrs by MTT assay to IC50 against Influenza A virus H3N2 infected in African green monkey Vero cells assessed as inhibition of virus-induced cytopathogenic effect by microscopic analysis. In kind it is toxicity. Conditions: read-out: Selectivity Index.
The nature of data set [16]: Selectivity index, ratio of TC50 against African green monkey Vero cells infected with Hepatitis C virus after 72 hrs by MTT assay to IC50 against Hepatitis C virus infected in African green monkey Vero cells assessed as inhibition of virus-induced cytopathogenic effect by microscopic analysis. In kind it is toxicity. As to conditions: read-out: Selectivity Index.
A short description of data set [17]: Selectivity index, ratio of TC50 against African green monkey Vero cells infected with Human papillomavirus after 72 hrs by MTT assay to IC50 against Human papillomavirus infected in African green monkey Vero cells assessed as inhibition of virus-induced cytopathogenic effect by microscopic analysis. It counts as toxicity. Conditions: read-out: Selectivity Index.

The nature of data set [18]: Selectivity index, ratio of TC50 against African green monkey Vero cells infected with Coxsackievirus B3 after 72 hrs by MTT assay to IC50 against Coxsackievirus B3 infected in African green monkey Vero cells assessed as inhibition of virus-induced cytopathogenic effect by microscopic analysis. As to conditions: read-out: Selectivity Index. It counts as toxicity.
Data set [19] can be described thus: Cytotoxicity against African green monkey Vero cells infected with Herpes simplex virus 1 after 72 hrs by MTT assay. Conditions: chlorocebus sabaeus, read-out: TC50. In kind it is cell-based.
In data set [20] the test system is Hepatitis C virus. Briefly: Antiviral activity against Hepatitis C virus infected in African green monkey Vero cells assessed as inhibition of virus-induced cytopathogenic effect by microscopic analysis. In kind it is functional, organism-based, Hepacivirus hominis.

Molecules are shown by their SMILES. Values after ≈ are worked out from the molar mass of the structure shown.

The text below walks through data of ChEMBL document CHEMBL4340503, “Antiviral activities of Janus-type nucleosides and their related oxime-intermediates” (Bioorg Med Chem, 2019).

On to `CC(C)(C)c1ccc(CNc2ncnc(Cl)c2/C=N/O)cc1`, for which the CC50 at 72 h was 9.8 µg/mL (≈ 30.7 µM) in [1]; 0.0397 µg/mL (≈ 0.124 µM) in data set [2]; 0.53 µg/mL (≈ 1.66 µM) in [4]; 19.3 µg/mL (≈ 60.5 µM) in [6]; 0.64 µg/mL (≈ 2.01 µM) in data set [10]; 0.48 µg/mL (≈ 1.51 µM) in [14]. Moreover, in [19], the CC50 at 72 h is 0.26 µg/mL (≈ 0.816 µM). For the same molecule, the half-maximal inhibitory concentration (IC50) was determined as 0.27 µg/mL (≈ 0.847 µM) in [3]; 5.6 µg/mL (≈ 17.6 µM) in data set [7]; 0.05 µg/mL (≈ 0.157 µM) in data set [8]; 0.04 µg/mL (≈ 0.125 µM) in data set [9]; 0.12 µg/mL (≈ 0.376 µM) in data set [11]; 1.15 µg/mL (≈ 3.61 µM) in data set [20]. In addition, the selectivity ratio at 72 h in data set [5] came out at 17.9; in data set [12], 5.2; in data set [13], 13.2; in data set [15], 1.78; in [16] it was 17.8; in data set [17], 1.75. In addition, the selectivity ratio at 72 h in data set [18] was found to be 4.92.
Turning to `Nc1ncnc2c1c(=O)[nH]c(=O)n2[C@@H]1O[C@H](CO)[C@@H](O)[C@@H]1O`, the IC50 was greater than 333 µg/mL in data set [3] and greater than 83.3 µg/mL in [8]. In addition, the CC50 at 72 h in data set [19] was greater than 250 µg/mL.
For `Nc1ncn([C@@H]2O[C@H](CO)C[C@H]2O)c2nc(=O)[nH]c(=O)c1-2`, the half-maximal inhibitory concentration (IC50) in data set [3] was greater than 83.3 µg/mL; in data set [8], 75.9 µg/mL (≈ 257 µM). Besides, in data set [12], the selectivity ratio at 72 h amounted to 4.6. For the same molecule, in data set [19], the CC50 at 72 h was determined as 347 µg/mL (≈ 1170 µM).
For `O/N=C/c1c(Cl)ncnc1NCc1ccc(Br)cc1`, in data set [8], the IC50 stood at 0.82 µg/mL (≈ 2.4 µM). For the same molecule, the selectivity ratio at 72 h in [12] was 15.7. Besides, the CC50 at 72 h in data set [19] was 12.8 µg/mL (≈ 37.6 µM).
As for `Nc1ncn([C@H]2C[C@H](O)[C@@H](CO)O2)c2nc(=O)[nH]c(=O)c1-2`, the IC50 is greater than 111 µg/mL in [3] and greater than 333 µg/mL in [8]. In addition, in data set [19], the CC50 at 72 h was 577 µg/mL (≈ 1960 µM).
Consider `O/N=C/c1c(Cl)ncnc1NCc1ccc(F)cc1`, for which the half-maximal inhibitory concentration (IC50) in data set [8] is greater than 2.47 µg/mL. Besides, the CC50 at 72 h in data set [19] worked out at 12.8 µg/mL (≈ 45.7 µM).
On to `COc1ccc(Cn2c(=O)nc(N)c3c(=O)[nH]c(N)nc32)cc1`, for which the IC50 in data set [3] is greater than 55.6 µg/mL; in data set [8] it was greater than 6.17 µg/mL. Also, the CC50 at 72 h in data set [19] stood at 18.5 µg/mL (≈ 58.9 µM).
On to `COc1nc(N)nc2[nH]c(=O)nc(N)c12`, for which the IC50 is greater than 9.26 µg/mL in data set [3] and 7.31 µg/mL (≈ 35.1 µM) in data set [8]. For the same molecule, the selectivity ratio at 72 h in data set [12] came out at 6.6. Also, the CC50 at 72 h in data set [19] turned out to be 48.1 µg/mL (≈ 231 µM).
As for `O/N=C/c1c(Cl)ncnc1NCc1ccc(Cl)cc1`, in data set [8], the 50% inhibitory concentration (IC50) amounted to 0.57 µg/mL (≈ 1.92 µM). Also, the selectivity ratio at 72 h in data set [12] turned out to be 5.58. Besides, in [19], the CC50 at 72 h came to 3.18 µg/mL (≈ 10.7 µM).
As to `Nc1nc(=O)n([C@@H]2O[C@H](CO)[C@@H](O)[C@H]2O)c2nc[nH]c(=O)c12`, the IC50 in data set [3] is greater than 1.37 µg/mL; in data set [8], greater than 0.79 µg/mL. The CC50 at 72 h in [19] was determined as 2.97 µg/mL (≈ 9.54 µM).
The matching figures for `Nc1nc2[nH]c(=O)nc(N)c2c(=O)[nH]1`: 27.8 µg/mL (≈ 143 µM), greater than 9.26 µg/mL and 16 µg/mL (≈ 82.6 µM).
As for `Nc1ncn([C@@H]2O[C@H](CO)[C@@H](O)[C@@H]2O)c2nc(=O)[nH]c(=O)c1-2`, the figures for the half-inhibitory concentration (IC50) in data set [3] and in data set [8] were greater than 0.46 µg/mL and greater than 0.59 µg/mL, respectively. For the same molecule, the CC50 at 72 h in [19] came to 1.78 µg/mL (≈ 5.72 µM).
With `COc1ccc(Cn2c(=O)nc(N)c3c(OC)nc(N)nc32)cc1`, the values for the IC50 in [3] and in [8] were 18.5 µg/mL (≈ 56.4 µM) and 12.9 µg/mL (≈ 39.3 µM), respectively. Further, the selectivity ratio at 72 h in data set [12] was 4.3; in [15], 3.3. Moreover, the CC50 at 72 h in data set [19] is 55.6 µg/mL (≈ 169 µM).
For `Nc1ncnc2c1c(=O)[nH]c(=O)n2[C@H]1O[C@@H](CO)[C@H](O)[C@@H]1O`, the IC50 is greater than 33.3 µg/mL in [3] and greater than 30.2 µg/mL in data set [8]. The CC50 at 72 h in [19] was determined as 40.5 µg/mL (≈ 130 µM).
For the molecule `COc1ccccc1CNc1ncnc(Cl)c1/C=N\O`, in [8], the IC50 turned out to be 4.79 µg/mL (≈ 16.4 µM). In addition, the selectivity ratio at 72 h in [12] amounted to 2.23. The CC50 at 72 h in data set [19] worked out at 10.7 µg/mL (≈ 36.5 µM).
The matching figures for `NC(=O)c1ncn([C@@H]2O[C@H](CO)[C@@H](O)[C@H]2O)n1` [RIBAVIRIN]: 38.5 µg/mL (≈ 158 µM), greater than 5.2 and greater than 200 µg/mL.
In the same order, the values of `CO/N=C\c1c(Cl)ncnc1NCc1ccccc1OC` are 14.4 µg/mL (≈ 46.8 µM), 5.58 and 80.1 µg/mL (≈ 261 µM).

Usually IC50 stands for the concentration that gives 50% inhibition.
